Activity calls are given as the source filed them. How the calls were made is not given here.
Test system: CCRIS mutagenicity, Ames/micronucleus/aberration tests
Assay: CCRIS mutagenicity studies
[1] = Test System: AMES SALMONELLA TYPHIMURIUM, Strain/Indicator: TA98, Metabolic Activation: NONE, Method: PREINCUBATION
[2] = Test System: AMES SALMONELLA TYPHIMURIUM, Strain/Indicator: TA100, Metabolic Activation: NONE, Method: PREINCUBATION

Measured: mutagenic call

NNC(=O)c1[nH]c2ccccc2c1N
inactive: Test System: AMES SALMONELLA TYPHIMURIUM, Strain/Indicator: TA97, Metabolic Activation: S-9 (10%), Method: PREINCUBATION inactive; negative | Test System: AMES SALMONELLA TYPHIMURIUM, Strain/Indicator: TA98, Metabolic Activation: S-9 (10%), Method: PREINCUBATION inactive; negative | [2] inactive; negative | Test System: AMES SALMONELLA TYPHIMURIUM, Strain/Indicator: TA100, Metabolic Activation: S-9 (10%), Method: PREINCUBATION inactive; negative | Test System: AMES SALMONELLA TYPHIMURIUM, Strain/Indicator: TA102, Metabolic Activation: NONE, Method: PREINCUBATION inactive; negative | Test System: AMES SALMONELLA TYPHIMURIUM, Strain/Indicator: TA102, Metabolic Activation: S-9 (10%), Method: PREINCUBATION inactive; negative
active: Test System: AMES SALMONELLA TYPHIMURIUM, Strain/Indicator: TA97, Metabolic Activation: NONE, Method: PREINCUBATION active; positive | [1] active; positive

OC(c1ccc(Cl)cc1)(c1cncnc1)c1ccccc1Cl (centres undefined)
inactive: End Point: In vitro chromosomal aberrations, Test System: Human lymphocytes, Metabolic Activation: None inactive; negative | End Point: In vitro chromosomal aberrations, Test System: Human lymphocytes, Metabolic Activation: S-9 inactive; negative | End Point: In vivo micronucleus, Test System: Bone marrow polychromatic erythrocytes, Species: Rat, Strain/Sex: Sprague-Dawley (Male and female), Route: Oral inactive; negative | Test System: Ames Salmonella typhimurium, Strain/Indicator: TA98, Metabolic Activation: None, Method: Plate incorporation inactive; negative | Test System: Ames Salmonella typhimurium, Strain/Indicator: TA98, Metabolic Activation: Rat, Liver, S-9, Method: Plate incorporation inactive; negative | Test System: Ames Salmonella typhimurium, Strain/Indicator: TA100, Metabolic Activation: None, Method: Plate incorporation inactive; negative | Test System: Ames Salmonella typhimurium, Strain/Indicator: TA100, Metabolic Activation: Rat, Liver, S-9, Method: Plate incorporation inactive; negative | Test System: Ames Salmonella typhimurium, Strain/Indicator: TA1535, Metabolic Activation: None, Method: Plate incorporation inactive; negative | Test System: Ames Salmonella typhimurium, Strain/Indicator: TA1535, Metabolic Activation: Rat, Liver, S-9, Method: Plate incorporation inactive; negative | Test System: Ames Salmonella typhimurium, Strain/Indicator: TA1537, Metabolic Activation: None, Method: Plate incorporation inactive; negative | Test System: Ames Salmonella typhimurium, Strain/Indicator: TA1537, Metabolic Activation: Rat, Liver, S-9, Method: Plate incorporation inactive; negative | Test System: E. coli, Strain/Indicator: WP2uvrA-, Metabolic Activation: None, Method: Plate incorporation inactive; negative | Test System: E. coli, Strain/Indicator: WP2uvrA-, Metabolic Activation: Rat, Liver, S-9, Method: Plate incorporation inactive; negative
active: End Point: In vivo micronucleus, Test System: Bone marrow polychromatic erythrocytes, Species: Mouse, Strain/Sex: Not specified/Male, Route: Oral active; positive. statistically significant increase at 24 hr but no effects at 48 or 72

Cc1cc(-c2ccccc2C)ccc1N
active: Test System: AMES SALMONELLA TYPHIMURIUM, Strain/Indicator: TA98, Metabolic Activation: RAT, LIVER, S-9, AROCLOR 1254, Method: STANDARD PLATE active; positive | Test System: AMES SALMONELLA TYPHIMURIUM, Strain/Indicator: TA100, Metabolic Activation: RAT, LIVER, S-9, AROCLOR 1254, Method: STANDARD PLATE active; positive | Test System: AMES SALMONELLA TYPHIMURIUM, Strain/Indicator: TA1538, Metabolic Activation: RAT, LIVER, S-9, AROCLOR 1254, Method: STANDARD PLATE active; positive | Test System: UDS RODENT HEPATOCYTES, Strain/Indicator: THY INCORP (NON-S-PHASE), Method: AUTORADIOGRAPHY active; positive

CCCCCCCCCCCCCCC1CO1 (centres undefined)
inactive: Test System: AMES SALMONELLA TYPHIMURIUM, Strain/Indicator: TA98, Metabolic Activation: HAMSTER, LIVER, S-9, AROCLOR 1254 (10%), Method: PREINCUBATION inactive; negative | [1] inactive; negative | Test System: AMES SALMONELLA TYPHIMURIUM, Strain/Indicator: TA98, Metabolic Activation: RAT, LIVER, S-9, AROCLOR 1254 (10%), Method: PREINCUBATION inactive; negative | Test System: AMES SALMONELLA TYPHIMURIUM, Strain/Indicator: TA100, Metabolic Activation: HAMSTER, LIVER, S-9, AROCLOR 1254 (10%), Method: PREINCUBATION inactive; negative | [2] inactive; negative | Test System: AMES SALMONELLA TYPHIMURIUM, Strain/Indicator: TA100, Metabolic Activation: RAT, LIVER, S-9, AROCLOR 1254 (10%), Method: PREINCUBATION inactive; negative | Test System: AMES SALMONELLA TYPHIMURIUM, Strain/Indicator: TA1535, Metabolic Activation: HAMSTER, LIVER, S-9, AROCLOR 1254 (10%), Method: PREINCUBATION inactive; negative | Test System: AMES SALMONELLA TYPHIMURIUM, Strain/Indicator: TA1535, Metabolic Activation: NONE, Method: PREINCUBATION inactive; negative | Test System: AMES SALMONELLA TYPHIMURIUM, Strain/Indicator: TA1535, Metabolic Activation: RAT, LIVER, S-9, AROCLOR 1254 (10%), Method: PREINCUBATION inactive; negative | Test System: AMES SALMONELLA TYPHIMURIUM, Strain/Indicator: TA1537, Metabolic Activation: HAMSTER, LIVER, S-9, AROCLOR 1254 (10%), Method: PREINCUBATION inactive; negative | Test System: AMES SALMONELLA TYPHIMURIUM, Strain/Indicator: TA1537, Metabolic Activation: NONE, Method: PREINCUBATION inactive; negative | Test System: AMES SALMONELLA TYPHIMURIUM, Strain/Indicator: TA1537, Metabolic Activation: RAT, LIVER, S-9, AROCLOR 1254 (10%), Method: PREINCUBATION inactive; negative

CC(=O)O[C@H]1C(=O)[C@@]2(C)[C@H]([C@H](OC(=O)c3ccccc3)[C@]3(O)C[C@H](OC(=O)[C@H](O)[C@@H](NC(=O)c4ccccc4)c4ccccc4)C(C)=C1C3(C)C)[C@]1(OC(C)=O)CO[C@@H]1C[C@@H]2O
active: End Point: IN VITRO CHROMOSOMAL ABERRATIONS, Test System: PERIPHERAL HUMAN BLOOD LYMPHOCYTES, Metabolic Activation: NONE active; positive (ploidy changes) | End Point: In vitro micronucleus, Test System: Human lymphoblastoid TK6 cells, Metabolic Activation: None active; positive (p<0.001) | End Point: In vivo micronucleus, Test System: Micronucleated, binucleated and multinucleated hepatocytes, Species: Mouse, Strain/Sex: ddY/Male, Route: Intravenous active; positive for micronucleated, binucleated and multinucleated cells when agent adm | Test System: Mouse lymphoma, Strain/Indicator: L5178Y (Tk+/Tk-), Metabolic Activation: None, Method: Microwell active; positive
inactive: Test System: AMES SALMONELLA TYPHIMURIUM, Strain/Indicator: TA97, Metabolic Activation: NONE, Method: STANDARD PLATE inactive; negative | Test System: AMES SALMONELLA TYPHIMURIUM, Strain/Indicator: TA97, Metabolic Activation: S-9, Method: STANDARD PLATE inactive; negative | Test System: AMES SALMONELLA TYPHIMURIUM, Strain/Indicator: TA98, Metabolic Activation: NONE, Method: STANDARD PLATE inactive; negative | Test System: AMES SALMONELLA TYPHIMURIUM, Strain/Indicator: TA98, Metabolic Activation: S-9, Method: STANDARD PLATE inactive; negative | Test System: AMES SALMONELLA TYPHIMURIUM, Strain/Indicator: TA100, Metabolic Activation: NONE, Method: STANDARD PLATE inactive; negative | Test System: AMES SALMONELLA TYPHIMURIUM, Strain/Indicator: TA100, Metabolic Activation: S-9, Method: STANDARD PLATE inactive; negative | Test System: AMES SALMONELLA TYPHIMURIUM, Strain/Indicator: TA102, Metabolic Activation: NONE, Method: STANDARD PLATE inactive; negative | Test System: AMES SALMONELLA TYPHIMURIUM, Strain/Indicator: TA102, Metabolic Activation: S-9, Method: STANDARD PLATE inactive; negative

[Cl][Sb]([Cl])([Cl])([Cl])[Cl]
inactive: [1] inactive; negative | Test System: AMES SALMONELLA TYPHIMURIUM, Strain/Indicator: TA98, Metabolic Activation: RAT, LIVER, S-9 (10%), Method: PREINCUBATION inactive; negative | [2] inactive; negative | Test System: AMES SALMONELLA TYPHIMURIUM, Strain/Indicator: TA100, Metabolic Activation: RAT, LIVER, S-9 (10%), Method: PREINCUBATION inactive; negative
